# Measurements from patent US20080132538A1, “Pharmaceutical uses for fluoroalkoxybenzylamino derivatives of nitrogen containing heterocycles” (Pfizer Inc, priority 2000, published 2008).
# System: not given
# Conditions: not given
row,Compound,melting point
1,CC(C)c1ccc(OCC(F)(F)F)c(CN[C@H]2CCCN[C@H]2c2ccccc2)c1.Cl,> 280 °C
2,CN(C)c1ccc(OCC(F)(F)F)c(CN[C@H]2CCCN[C@H]2c2ccccc2)c1.Cl,250 to 252 °C
3,Cl.FC(F)Oc1ccc(OC(F)F)c(CN[C@H]2CCCN[C@H]2c2ccccc2)c1,238 to 239 °C
4,CCOc1ccc(OC(F)(F)F)cc1CN[C@H]1CCCN[C@H]1c1ccccc1.Cl,> 275 °C (dec.)
5,CC(C)c1ccc(OC(F)F)c(CN[C@H]2CCCN[C@H]2c2ccccc2)c1.Cl,245 to 247 °C (dec.)
6,CC(=O)Nc1ccc(OCC(F)(F)F)c(CN[C@H]2CCCN[C@H]2c2ccccc2)c1.Cl,> 270 °C
7,Cc1ccc(OC(F)F)c(CN[C@H]2CCCN[C@H]2c2ccccc2)c1.Cl,> 275 °C

# Other lines, results leading:
row,melting point,Compound
1,262 to 264 °C,CC(C)(C)c1ccc(OC(F)(F)F)c(CN[C@H]2CCCN[C@H]2c2ccccc2)c1.Cl
2,263 to 264 °C (dec.),CC(C)(C)c1ccc(OC(F)F)c(CN[C@H]2CCCN[C@H]2c2ccccc2)c1.Cl
3,245 to 246 °C (dec.),CC(C)Oc1ccc(OC(F)(F)F)cc1CN[C@H]1CCCN[C@H]1c1ccccc1.Cl
4,231 to 233 °C,Cl.FC(F)(F)Oc1ccccc1CN[C@H]1CCCN[C@H]1c1ccccc1

# System: CCR5 receptors
# Conditions: Proc. Nat'l. Acad. Sci., 98 (7), p3970; cited from earlier work
row,Compound,effect on CCR5 receptors
1,"COc1ccccc1CN[C@H]1C2CCN(CC2)[C@H]1C(c1ccccc1)c1ccccc1 [CP-96,345]",down regulates CCR5 receptors
